Assay results from the SangsterLogP compilation.

Experiment: method code SF-GLC, from DOI: 10.1248/cpb.33.2403, PMID: 4064199
`CC(C)COC(N)=O` gave a logP of 0.98.
Work on `CC(C)COC(=O)N(C)C` yielded a logP of 2.

Experiment: method code SF-AS, from DOI: 10.1248/cpb.33.2403, PMID: 4064199
`CN(C)C(=O)OCCc1ccccc1` gave a logP of 2.4.
Compound `NC(=O)OCCc1c[nH]c2ccccc12` has a logP of 1.69.
Work on `CN(C)C(=O)OCCCc1cccnc1` yielded a logP of 1.44.
Work on `CN(C)C(=O)OCCc1c[nH]c2ccccc12` yielded a logP of 2.54.
`CCN(CC)C(=O)OCc1ccccc1` gave a logP of 2.93.
For `CCN(CC)C(=O)OCCc1ccccc1`, the logP was 3.2.
`CNC(=O)OCc1ccccc1` showed a logP of 1.68.
`CCC(CC)COC(N)=O` showed a logP of 1.98.
Compound `CN(C)C(=O)OCCCc1ccccc1` has a logP of 2.93.
`NC(=O)OCCc1ccccc1` showed a logP of 1.5.
`CC(C)OC(=O)N(C)C` showed a logP of 1.38.
For `CCC(CC)COC(=O)N(C)C`, the logP was 2.87.
For `NC(=O)OCCCc1cccnc1`, the logP was 0.46.
`NC(=O)OCCCc1ccccc1` showed a logP of 1.96.
For `NC(=O)OCc1ccc(Cl)cc1`, the logP was 1.97.
With `CCN(CC)C(=O)OCC(C)C` the logP was 2.82.
Work on `CCN(CC)C(=O)OCCc1c[nH]c2ccccc12` yielded a logP of 3.3.

Experiment: method code SF-HPLC, from DOI: 10.1248/cpb.33.2403, PMID: 4064199
In the case of `CC(Cc1ccccc1)OC(=O)N(C)C` (stereo unspecified), the logP is reported as 2.6.
For `CCC(CC)COC(=O)N(CC)CC`, the logP was 3.6.
